According to patent US9346746B2, “R(+)-N-formyl-propargyl-aminoindan” (Teva Pharmaceutical Industries, Ltd., priority 2011, dated 2016):
Read-outs that look alike come from different tables or passages of the source.

Columns and labels:
[1] = melt phase, Air
Method: Samples intended to degrade under an inert atmosphere were flushed with nitrogen for 5 minutes before closing with a stopper.
The samples were introduced into a pre-heated oven and held at a constant temperature of 78 and 90° C. for 24, 72 or 137 hrs. After completion of the treatment the samples were refrigerated and analyzed.

[2] = 1 mg/ml, air, Ethanol, 78 °C, 168 hrs
Method: The solutions were exposed to heating in oven under air atmosphere in amber glass vials closed with Teflon stoppers and covered with aluminum foil for protection from light. After completion of the treatment the samples were refrigerated at 2-8° C. and analyzed later using HPLC.

[3] = for R(+)-N-formyl-PAI, % of Rasagiline: 90° C., air, 1 mg/ml
Method: An additional series of degradation experiments was performed at 90° C. in order to achieve even higher degradation of Rasagiline in aqueous solutions.
For this series the treatment time was 1 and 2 weeks, and phosphate-citrate buffer (pH=2.6) and phosphate buffer (pH=8.0) were used.
The solutions were exposed to heat in an oven under an air atmosphere in amber glass vials closed with Teflon stoppers and covered with aluminum foil for protection from light.
The samples were introduced into an oven pre-heated to 90° C. and held at this temperature for 7 or 14 days. After completion of the treatment the samples were refrigerated at 2-8° C. and analyzed.

[4] = room temperature, initial peroxide 3%
Method: Then peroxide and water were added; complete dissolution of solid was achieved by shaking.
After holding at room temperature for 10 minutes to 20 hrs (oxidation time), the solutions were diluted with mobile phase and analyzed by HPLC.

[5] = RH=100%, room temperature, 7 days
[6] = in vivo; cited from earlier work

In the case of `C#CCN[C@@H]1CCc2ccccc21` [Rasagiline base, R(+)-N-propargyl-1-aminoindan], the “R(+)-N-formyl-PAI, % of Rasagiline” value ([1]; 78 deg. C., 24 hrs) is reported as 0.14 % of Rasagiline, the “R(+)-N-formyl-PAI, % of Rasagiline” value ([1]; 78 deg. C., 72 hrs) is reported as 0.10 % of Rasagiline and the “R(+)-N-formyl-PAI, % of Rasagiline” value ([1]; 90 deg. C., 24 hrs) is reported as 0.08 % of Rasagiline. For the same compound, the “R(+)-N-formyl-PAI, % of Rasagiline” value ([1]; 90 deg. C., 72 hrs) was 0.07 % of Rasagiline, the “R(+)-N-formyl-PAI, % of Rasagiline” value ([1]; 90 deg. C., 137 hrs) was 0.07 % of Rasagiline and the “R(+)-N-formyl-PAI, % of Rasagiline” value [2] was <0.04 % of Rasagiline. For the same compound, the “R(+)-N-formyl-PAI, % of Rasagiline” value ([3]; Acetate buffer pH = 4.1, 1 week) was 0.05 % of Rasagiline, the “R(+)-N-formyl-PAI, % of Rasagiline” value ([3]; Phosphate buffer pH = 6.0, 1 week) was 0.07 % of Rasagiline and the “R(+)-N-formyl-PAI, % of Rasagiline” value ([3]; Phosphate buffer pH = 6.0, 2 weeks) was 0.16 % of Rasagiline. The “R(+)-N-formyl-PAI, % of Rasagiline” value ([3]; Phosphate buffer pH = 8.0, 1 week) was 0.22 % of Rasagiline, the “R(+)-N-formyl-PAI, % of Rasagiline” value ([3]; Phosphate buffer pH = 8.0, 2 weeks) was 0.19 % of Rasagiline and the “R(+)-N-formyl-PAI, % of Rasagiline” value ([3]; Phosphate-citrate buffer 3.6, 1 week) was 0.13 % of Rasagiline. For the same compound, the “R(+)-N-formyl-PAI, % of Rasagiline” value ([3]; Phosphate-citrate buffer 3.6, 2 weeks) was 0.11 % of Rasagiline, the “R(+)-N-formyl-PAI, % of Rasagiline” value ([3]; Phosphate-citrate buffer pH = 2.6, 1 week) was 0.17 % of Rasagiline and the “R(+)-N-formyl-PAI, % of Rasagiline” value ([3]; Phosphate-citrate buffer pH = 2.6, 2 weeks) was 0.26 % of Rasagiline. The “R(+)-N-formyl-PAI found in the solutions” value ([3]; aqueous solutions at 90° C., summary statement) was “above 0.1 % area of Rasagiline”, the “R(+)-N-formyl-PAI, % of Rasagiline” value ([4]; oxidation time 5:00 hr:min) was 0.17 % of Rasagiline and the “R(+)-N-formyl-PAI, % of Rasagiline” value ([4]; oxidation time 20:00 hr:min) was 0.23 % of Rasagiline. The “R(+)-N-formyl-PAI after humidity stress” value [5] was “not detected” and the absolute bioavailability [6] was “about 36%”.
